Values after ≈ are worked out from the molar mass of the structure shown.
Key:
[1] = test system: Mycobacterium tuberculosis; test: Antitubercular activity against dormant Mycobacterium tuberculosis H37Ra at 3 ug after 12 days by XTT-Menadione assay; type: functional
A549 = test: (§1) Cytotoxicity against human A549 cells after 3 days by MTT assay; type: cell-based; settings: Homo sapiens, A549, 72 h
[2] = as §1; type: cell-based; settings: human, A549 cells; read-out: MIC
Bacillus subtilis [3] = test: Antibacterial activity against Bacillus subtilis at 10 ug after 12 hrs; type: functional
MCF7 = test: (§2) Cytotoxicity against human MCF7 cells after 4 days by MTT assay; type: cell-based; settings: Homo sapiens, MCF7, 96 h
[4] = as §2; type: cell-based; settings: human, MCF7 cells; read-out: MIC
[5] = test system: Mycolicibacterium smegmatis; test: Antitubercular activity against dormant Mycobacterium smegmatis MC2 155 at 30 ug after 12 days by XTT-Menadione assay; type: functional, str. MC2 155
Pseudomonas fluorescens [6] = test: Antibacterial activity against Pseudomonas fluorescens at 30 ug after 8 hrs; type: functional
Bacillus subtilis [7] = test: Antibacterial activity against Bacillus subtilis at 30 ug after 12 hrs; type: functional
Pseudomonas fluorescens [8] = test: Antibacterial activity against Pseudomonas fluorescens at 3 ug after 8 hrs; type: functional
[9] = test system: Mycobacterium tuberculosis; test: Antitubercular activity against dormant Mycobacterium tuberculosis H37Ra at 10 ug after 12 days by XTT-Menadione assay; type: functional
[10] = test system: Mycolicibacterium smegmatis; test: Antitubercular activity against dormant Mycobacterium smegmatis MC2 155 at 10 ug after 12 days by XTT-Menadione assay; type: functional, str. MC2 155
Escherichia coli [11] = test: Antibacterial activity against Escherichia coli at 30 ug after 8 hrs; type: functional
[12] = test system: Mycobacterium tuberculosis; test: Antitubercular activity against dormant Mycobacterium tuberculosis H37Ra after 12 days by XTT-Menadione assay; type: functional, organism-based; settings: 288 h
[13] = Cytotoxicity against human PANC1 cells after 5 days by MTT assay; type: cell-based, PANC-1; settings: for IC50: Homo sapiens, PANC-1, 120 h; for MCC at 120 h: human, PANC1 cells, read-out: MIC
[14] = test system: Mycolicibacterium smegmatis; test: Antitubercular activity against dormant Mycobacterium smegmatis MC2 155 at 3 ug after 12 days by XTT-Menadione assay; type: functional, str. MC2 155
Bacillus subtilis [15] = test: Antibacterial activity against Bacillus subtilis at 3 ug after 12 hrs; type: functional
Escherichia coli [16] = test: Antibacterial activity against Escherichia coli at 3 ug after 8 hrs; type: functional
Staphylococcus aureus [17] = test: Antibacterial activity against Staphylococcus aureus at 10 ug after 12 hrs; type: functional
Staphylococcus aureus [18] = test: Antibacterial activity against Staphylococcus aureus at 30 ug after 12 hrs; type: functional
Staphylococcus aureus [19] = test: Antibacterial activity against Staphylococcus aureus at 3 ug after 12 hrs; type: functional
[20] = Cytotoxicity against human THP1 cells after 5 days by MTT assay; type: cell-based, THP-1; settings: for IC50: Homo sapiens, THP-1, 120 h; for MCC at 120 h: human, THP1 cells, read-out: MIC
[21] = test system: Mycobacterium tuberculosis; test: Antitubercular activity against dormant Mycobacterium tuberculosis H37Ra at 30 ug after 12 days by XTT-Menadione assay; type: functional
Pseudomonas fluorescens [22] = test: Antibacterial activity against Pseudomonas fluorescens at 10 ug after 8 hrs; type: functional
Escherichia coli [23] = test: Antibacterial activity against Escherichia coli at 10 ug after 8 hrs; type: functional

Compound | inhibition (INH) [1] [%] | IC50 (A549) [µg/mL] | MCC at 72 h [2] [µg/mL] | inhibition (INH) (Bacillus subtilis [3]) [%] | inhibition (INH) [5] [%] | inhibition (INH) (Pseudomonas fluorescens [6]) [%] | inhibition (INH) (Bacillus subtilis [7]) [%] | inhibition (INH) (Pseudomonas fluorescens [8]) [%] | inhibition (INH) [9] [%] | inhibition (INH) [10] [%] | inhibition (INH) (Escherichia coli [11]) [%] | inhibition (INH) [14] [%] | inhibition (INH) (Bacillus subtilis [15]) [%] | inhibition (INH) (Escherichia coli [16]) [%] | inhibition (INH) (Staphylococcus aureus [17]) [%] | inhibition (INH) (Staphylococcus aureus [18]) [%] | inhibition (INH) (Staphylococcus aureus [19]) [%] | inhibition (INH) [21] [%] | inhibition (INH) (Pseudomonas fluorescens [22]) [%] | inhibition (INH) (Escherichia coli [23]) [%] | also measured
Cc1cnc(C(=O)NN2C(=O)CS[C@@H]2c2ccc([N+](=O)[O-])cc2)cn1 | 72.31 | > 100 | > 100 | 22.68 | 10.44 | 22.82 | 13.11 | 26.73 | 73.66 | 42.01 | 62.08 | 57.99 | 21.45 | 56.92 | -8.13 | 13.12 | 9.39 | 91.72 | 7.48 | 37.74 | IC50 (MCF7): > 100 µg/mL; MCC at 96 h [4]: > 100 µg/mL; IC50 [12]: 0.528 µg/mL (≈ 1.47 µM); MIC [12]: 27.5 µg/mL (≈ 76.6 µM); IC50 [13]: > 100 µg/mL; MCC at 120 h [13]: > 100 µg/mL; IC50 [20]: > 100 µg/mL; MCC at 120 h [20]: > 100 µg/mL
COc1ccc([C@H]2SCC(=O)N2NC(=O)c2nccnc2N)cc1OC | 50.37 | 80 (≈ 213 µM) | > 100 | 22.5 | 31.62 | 41.19 | 9.92 | 30.31 | 70.88 | 35.96 | 4.659 | 50.59 | 8.28 | 70.93 | 6.63 | 34.19 | 26.84 | 90.99 | 22.77 | 50.22 | IC50 (MCF7): 86.2 µg/mL (≈ 230 µM); MCC at 96 h [4]: > 100 µg/mL; IC50 [12]: 0.718 µg/mL (≈ 1.91 µM); MIC [12]: 25.8 µg/mL (≈ 68.8 µM); IC50 [13]: > 100 µg/mL; MCC at 120 h [13]: > 100 µg/mL; IC50 [20]: 85.4 µg/mL (≈ 228 µM); MCC at 120 h [20]: > 100 µg/mL
CCOc1cc([C@@H]2SCC(=O)N2NC(=O)c2cnc(C)cn2)ccc1O | 78.71 | > 100 | > 100 | 15.08 | 7.269 | 11.17 | 16.07 | 12.73 | 86.08 | 28.89 | 29.15 | 1.412 | 21.36 | -27.76 | -12.53 | 32.72 | -16.05 | 90.6 | 12.75 | 16.57 | IC50 (MCF7): > 100 µg/mL; MCC at 96 h [4]: > 100 µg/mL; IC50 [12]: 0.337 µg/mL (≈ 0.9 µM); MIC [12]: 26.6 µg/mL (≈ 70.9 µM); IC50 [13]: > 100 µg/mL; MCC at 120 h [13]: > 100 µg/mL; IC50 [20]: > 100 µg/mL; MCC at 120 h [20]: > 100 µg/mL
Nc1nccnc1C(=O)NN1C(=O)CSC1c1ccc(Cl)cc1Cl (configuration not stated) | 64.5 |  |  | -11.3 | 33.52 | 7.35 | 3.8 | 14.82 | 68.91 | 55.96 | -146.6 | 42.73 | -13.09 | -35.51 | -26.32 | -52.82 | -35.91 | 63.39 | -6.12 | 38.17 | 

Source: ChEMBL document CHEMBL3792312, “Synthesis and docking studies of pyrazine-thiazolidinone hybrid scaffold targeting dormant tuberculosis” (Bioorg Med Chem Lett, 2016)
